These results are taken from patent US8163770B2, “Benzoxathiin derivative” (MSD. K. K., priority 2005, dated 2012).

Read-outs that look alike come from different tables or passages of the source.

A short description of data set [1]: Test for brain/cerebrospinal fluid transition. It is filed as in vivo. Conditions: SD male rat, 2 hours after oral administration (10 mg/kg). As to the method:
The test compound was orally or intravenously administered to an SD male rat (7 to 10-week age, 200 to 400 g), and under anesthesia with ether for a predetermined period of time, the whole blood was collected from it through the abdominal aorta thereof using a heparin-processed syringe. Next, the head skin was cut, and a dental 30 G needle was stuck into the cervical spine to run through the subarachnoid cavity. Via a tube connected to the dental 30 G needle, from 50 to 100 μL of the cerebrospinal fluid was collected in a 1-mL syringe, and then the brain was taken out. The blood sample was centrifuged (4° C., 6000 revolutions, 10 minutes), and the resulting plasma was stirred with ethanol (containing an internal standard substance) in an amount of three times thereof added to it. The brain sample was homogenized with 2 mL of water added thereto; and a part of it was taken out and stirred with ethanol (containing an internal standard substance) in an amount of three times thereof added to it. The cerebrospinal fluid was stirred with ethanol (containing an internal standard substance) in an amount of three times thereof added to it. The above samples were left at −20° C. for 20 minutes, then centrifuged (4° C., 12,000 g, 10 minutes), and the supernatant was analyzed through LC/MS/MS. According to a relative calibration curve method, the compound concentration in the plasma, in the brain and in the cerebrospinal fluid was determined.

Another data set concerns the target T1, histamine-H3 receptor (Rattus norvegicus, UniProt Q9QYN8).
T1 construct: from tissue; host or cells: living male rat
Kind of data set: Test for antagonistic effect to water-drinking action induced by histamine-H3 receptor selective agonist, R-α-methylhistamine. Type of data set: in vivo. Conditions: 10 mg/kg oral, 2 hours before R-α-methylhistamine, water drunk for 1 hour.

T1 sequence (Q9QYN8 whole entry): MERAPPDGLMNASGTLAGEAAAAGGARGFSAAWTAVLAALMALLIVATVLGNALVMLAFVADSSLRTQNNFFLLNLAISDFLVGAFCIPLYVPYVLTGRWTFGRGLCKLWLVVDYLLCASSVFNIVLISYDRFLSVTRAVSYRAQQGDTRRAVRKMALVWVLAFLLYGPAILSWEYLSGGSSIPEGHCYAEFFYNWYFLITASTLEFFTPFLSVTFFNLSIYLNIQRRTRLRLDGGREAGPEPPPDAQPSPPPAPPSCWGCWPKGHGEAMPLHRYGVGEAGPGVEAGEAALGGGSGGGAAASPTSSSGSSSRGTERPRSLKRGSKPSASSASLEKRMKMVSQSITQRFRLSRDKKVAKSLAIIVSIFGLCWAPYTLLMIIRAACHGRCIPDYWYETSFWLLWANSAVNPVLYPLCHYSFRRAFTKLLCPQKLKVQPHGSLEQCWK
Protocol for histamine-H3 receptor: Under anesthesia with ketamine xylazine (74 and 11 mg/kg intraabdominal single administration), a brain stereotaxic device was set in the third ventricle of a male DS rat (7 to 10-week age, 200 to 300 g), and a chronic guide cannula (26 gauge, length 11 mm) was inserted into it and fixed with a dental resin. The position of the tip of the guide cannula is at 2.2 mm after the bregma on the midline, and at a depth of 8 mm from the surface of the skull. After a restoration term of about 1 week, R-α-methylhistamine (0.3 μg/1 μL/head, 30% propylene glycol liquid) was administered into the third ventricle. The test compound suspended in an aqueous 0.5% methyl cellulose solution was orally administered to the rat before 2 hours before the R-α-methylhistamine administration; and after the R-α-methylhistamine administration, the amount of water drunk by the rat for 1 hour was measured.

For the molecule `C[C@H]1[C@H](c2ccc(OCCCN3CCCC3)cc2)Oc2ccccc2S1(=O)=O` (single isomer, unassigned) [(2S*,3S*)-2,3-dihydro-3-methyl-2-[4-[3-(1-pyrrolidinyl)propoxy]phenyl]-1,4-benzoxathiin-4,4-dioxide], the “concentration in the brain” value in data set [1] is listed as 6.96 nmol/g. Further, the concentration at 2 h in data set [1] (cerebrospinal fluid, read-out: concentration in the cerebrospinal fluid) amounted to 174 nM; in data set [1] (plasma, read-out: concentration in the plasma) it was 980 nM. In addition, at histamine-H3 receptor, the “inhibition of the increase in the water drinking induced by R-α-methylhistamine in the third ventricle” value was “significantly inhibited”.
